What all share (format): physicochemical
Data set [1] in a line: Conductivity of diluted samples (EPA method 120.1). The note with it: samples diluted with de-ionized water; Example materials at 1% by volume in water.
Excerpt: In order to test for conductivity the samples are each diluted with de-ionized water for analysis. The testing is completed using a Mettler Toledo Seven Excellence Meter with a conductivity probe following EPA method 120.1.
The nature of data set [2]: Freeze point by DSC (USP <891>). The note with it: Example materials at 1% by volume in water.
Description: In order to evaluate freezing point, the samples are analyzed using a TA Instruments Q100 DSC equipped with an RCS-90 cooling system following USP <891>.
Data set [3] is described as follows: Acidity titration for hydrogen ion content (ASTM D1067 Test Method A). The note with it: titrated to pH 8.6; Example materials at 1% by volume in water.
Excerpt: The testing was completed using a Metrohm 826 Titrando equipped with a pH probe.
The nature of data set [4]: Excess hydrogen ion concentration and pH after admixing with water. To be noted: 5 ml material in 5 ml deionized and distilled water, standard temperature and pressure. The method, then:
The excess hydrogen ion concentration is measured as greater than 15% by volume and the pH of the material is determined to be 1.

Take “hydrogen (1+), triaqua-μ3-oxotri sulfate (1:1) [Example I]”: in data set [1], the Conductivity is listed as 551 mS/cm. Besides, the “Melting Temperature (freeze point)” value in data set [2] was −9.07 °C. In addition, the “Acidity @ pH 8.6” value in data set [3] was determined as 1307.28 meq/L. The pH in data set [4] was 1.

Values taken from patent publication US20210337802A1, “COMPOSITION AND PROCESS FOR RECONDITIONING RESPIRATORS AND OTHER PERSONAL PROTECTIVE EQUIPMENT” (Tygrus, LLC, priority 2020, published 2021).
